The nature of data set [1]: Toxicity against brine shrimp larvae assessed as mortality at 100 ug/mL after 24 hrs by binocular microscopic analysis relative to control. The data set is classed as organism-based. The following applies: artemia salina, in vivo.
Data set [2] in a line: Toxicity against brine shrimp larvae assessed as mortality at 1000 ug/mL after 24 hrs by binocular microscopic analysis relative to control. It is filed as organism-based. The following applies: artemia salina, in vivo.
Data set [3] can be described thus: (§1) Toxicity against brine shrimp larvae assessed as mortality after 24 hrs by binocular microscopic analysis. It is filed as organism-based. The following applies: artemia salina, in vivo.
Another data set deals with Artemia salina. Described as §1. The following applies: in vivo, 24 h. It is filed as organism-based.
Another data set has as its system Bacillus cereus. Description: Antibacterial activity against Bacillus cereus at 5 mg/mL after 24 hrs. The following applies: read-out: DIZ. The data set is classed as functional.
The test system of another data set is Escherichia coli. Description: Antibacterial activity against Escherichia coli at 5 mg/mL after 24 hrs. The following applies: read-out: DIZ. It is filed as functional.
Another data set has as its system Aspergillus fumigatus. Briefly: Antifungal activity against Aspergillus fumigatus Af293 at 5 mg/mL after 48 hrs. The data set is classed as functional. The following applies: Af293, 48 h, read-out: DIZ.
A further data set has as its system Staphylococcus aureus. Briefly: Antibacterial activity against Staphylococcus aureus at 5 mg/mL after 24 hrs. The data set is classed as functional. The following applies: read-out: DIZ.
Data set [4] can be described thus: Toxicity against brine shrimp larvae assessed as mortality at 500 ug/mL after 24 hrs by binocular microscopic analysis relative to control. It is filed as organism-based. The following applies: artemia salina, in vivo.
Data set [5] concerns Chromobacterium violaceum. Briefly: Antiquorum-sensing activity against Chromobacterium violaceum ATCC 12472 after 48 hrs. The data set is classed as functional.
Data set [6] is described as follows: Toxicity against brine shrimp larvae assessed as mortality at 10 ug/mL after 24 hrs by binocular microscopic analysis relative to control. It is filed as organism-based. The following applies: artemia salina, in vivo.
The subject of another data set is Aspergillus flavus. Briefly: Antifungal activity against Aspergillus flavus 3372 at 5 mg/mL after 48 hrs. The data set is classed as functional. The following applies: Aspergillus flavus, 3372, 48 h; read-out: DIZ.
The subject of the next data set is Candida albicans. Briefly: Antifungal activity against Candida albicans at 5 mg/mL after 48 hrs. The data set is classed as functional. The following applies: read-out: DIZ.

Converted amounts (≈) assume the structure as drawn.

By mortality is commonly meant the percentage killed. One may read the LC50 as the concentration lethal to half of the exposed cells or organisms. On to `N#CC1C(=O)N=C2SC(S(N)(=O)=O)=NN2C1c1ccc(Cl)cc1` (stereo not given), for which the mortality at 24 h, 100 ug/mL in [1] worked out at 36.6%. Further, the mortality at 24 h, 1000 ug/mL in [2] was 66.6%. The median lethal concentration (LC50) at 24 h in [3] is 660 µg/mL (≈ 1780 µM). In the data set with Artemia salina, the LC90 was found to be 1187.33 µg/mL (≈ 3210 µM). Besides, the zone of inhibition at 5000 µg/mL in the data set with Bacillus cereus is less than 2 mm; in the data set with Escherichia coli it was less than 2 mm; in the data set on Aspergillus fumigatus, 6 mm; in the data set with Staphylococcus aureus it was less than 2 mm; in the data set with Aspergillus flavus, less than 2 mm; in the data set on Candida albicans, 8 mm. In addition, the mortality at 24 h, 500 ug/mL in [4] is 50%. For the same compound, the “diameter of the inhibition zone (DIZ)” value in data set [5] was determined as 11 mm. Moreover, the mortality at 24 h, 10 ug/mL in data set [6] is 23.3%.

On to `COc1ccc(C2C(C#N)C(=O)N=C3SC(S(N)(=O)=O)=NN32)cc1OC` (stereo not given), for which the mortality at 24 h, 100 ug/mL in [1] was found to be 50%. In addition, the mortality at 24 h, 1000 ug/mL in data set [2] was found to be 70%. Further, the LC50 at 24 h in data set [3] turned out to be 598 µg/mL (≈ 1510 µM). Besides, in the data set with Artemia salina, the LC90 is 1076.55 µg/mL (≈ 2720 µM). Besides, the zone of inhibition at 5000 µg/mL with Bacillus cereus was 9 mm; with Escherichia coli it was less than 2 mm; in the data set with Aspergillus fumigatus it was 8 mm; in the data set with Staphylococcus aureus it was 10 mm; in the data set on Aspergillus flavus it was less than 2 mm; in the data set with Candida albicans it was 24 mm. In [4], the mortality at 24 h, 500 ug/mL came out at 60%. Further, in data set [5], the “diameter of the inhibition zone (DIZ)” value was determined as 8 mm. In addition, in data set [6], the mortality at 24 h, 10 ug/mL was 36.6%.

As to `CN(C)c1ccc(C2C(C#N)C(=O)N=C3SC(S(N)(=O)=O)=NN32)cc1` (stereo not given), in [1], the mortality at 24 h, 100 ug/mL came to 86.6%. Moreover, the mortality at 24 h, 1000 ug/mL in data set [2] was found to be 100%. Also, the LC50 at 24 h in data set [3] was found to be 400 µg/mL (≈ 1060 µM). In addition, the LC90 with Artemia salina was found to be 719.42 µg/mL (≈ 1900 µM). The zone of inhibition at 5000 µg/mL is 6 mm in the data set with Bacillus cereus; less than 2 mm with Escherichia coli; 8 mm in the data set with Aspergillus fumigatus; 7 mm in the data set on Staphylococcus aureus; less than 2 mm in the data set with Aspergillus flavus; 32 mm in the data set on Candida albicans. Besides, in data set [4], the mortality at 24 h, 500 ug/mL was determined as 96.6%. For the same compound, the “diameter of the inhibition zone (DIZ)” value in [5] amounted to 6 mm. Besides, in [6], the mortality at 24 h, 10 ug/mL is 70%.

Consider `Nc1c(/N=N/c2ccccc2)c(=O)nc2sc(S(N)(=O)=O)nn12`, for which, in data set [1], the mortality at 24 h, 100 ug/mL was determined as 80%. Further, the mortality at 24 h, 1000 ug/mL in data set [2] is 96.6%. For the same compound, the LC50 at 24 h in data set [3] is 419 µg/mL (≈ 1190 µM). The LC90 with Artemia salina was 755.03 µg/mL (≈ 2150 µM). Further, the zone of inhibition at 5000 µg/mL in the data set with Bacillus cereus was 7 mm; in the data set on Escherichia coli, 10 mm; in the data set with Aspergillus fumigatus it was less than 2 mm; in the data set with Staphylococcus aureus it was 7 mm; in the data set on Aspergillus flavus, less than 2 mm; with Candida albicans it was 4 mm. The mortality at 24 h, 500 ug/mL in [4] is 90%. The “diameter of the inhibition zone (DIZ)” value in data set [5] is given as less than 2 mm. In addition, the mortality at 24 h, 10 ug/mL in data set [6] amounted to 66.6%.

Take `Nc1c(/N=N/c2ccc(Br)cc2)c(=O)nc2sc(S(N)(=O)=O)nn12`: the mortality at 24 h, 100 ug/mL in data set [1] came out at 66.6%. Also, in [2], the mortality at 24 h, 1000 ug/mL came to 90%. Besides, the median lethal concentration (LC50) at 24 h in [3] turned out to be 460 µg/mL (≈ 1070 µM). Also, the LC90 in the data set with Artemia salina came out at 827.2 µg/mL (≈ 1920 µM). In addition, the zone of inhibition at 5000 µg/mL in the data set with Bacillus cereus was 5 mm; with Escherichia coli it was less than 2 mm; in the data set on Aspergillus fumigatus it was 4 mm; with Staphylococcus aureus, 9 mm; with Aspergillus flavus it was less than 2 mm; in the data set on Candida albicans, 6 mm. For the same compound, in data set [4], the mortality at 24 h, 500 ug/mL was determined as 80%. In addition, the “diameter of the inhibition zone (DIZ)” value in data set [5] came out at 12 mm. The mortality at 24 h, 10 ug/mL in data set [6] came out at 46.6%.

Take `Cc1ccc(/N=N/c2c(N)n3nc(S(N)(=O)=O)sc3nc2=O)cc1`: the mortality at 24 h, 100 ug/mL in data set [1] is 96.6%. The mortality at 24 h, 1000 ug/mL in data set [2] is 100%. Besides, the LC50 at 24 h in [3] worked out at 392 µg/mL (≈ 1070 µM). Also, in the data set on Artemia salina, the LC90 is 706.43 µg/mL (≈ 1930 µM). Besides, the zone of inhibition at 5000 µg/mL amounted to 3 mm in the data set with Bacillus cereus; 4 mm in the data set on Escherichia coli; 6 mm with Aspergillus fumigatus; 8 mm with Staphylococcus aureus; 5 mm in the data set on Aspergillus flavus; 12 mm in the data set with Candida albicans. Further, the mortality at 24 h, 500 ug/mL in data set [4] is 100%. Further, the “diameter of the inhibition zone (DIZ)” value in [5] is 12 mm. In addition, the mortality at 24 h, 10 ug/mL in [6] came to 90%.

For the compound `COc1ccc(/N=N/c2c(N)n3nc(S(N)(=O)=O)sc3nc2=O)cc1`, the mortality at 24 h, 100 ug/mL in [1] is 86.6%. In addition, the mortality at 24 h, 1000 ug/mL in [2] worked out at 100%. Further, the 50% lethal concentration (LC50) at 24 h in [3] is 404 µg/mL (≈ 1060 µM). In addition, the LC90 in the data set with Artemia salina was found to be 726.97 µg/mL (≈ 1910 µM). Further, the zone of inhibition at 5000 µg/mL is 3 mm in the data set on Bacillus cereus; 5 mm with Escherichia coli; less than 2 mm in the data set with Aspergillus fumigatus; 8 mm with Staphylococcus aureus; 5 mm in the data set on Aspergillus flavus; 6 mm in the data set on Candida albicans. Moreover, the mortality at 24 h, 500 ug/mL in [4] amounted to 93.3%. For the same compound, the “diameter of the inhibition zone (DIZ)” value in data set [5] is reported as 11 mm. Also, the mortality at 24 h, 10 ug/mL in data set [6] worked out at 73.3%.

Regarding `COc1ccc2c(c1)CCC1=C2N=C2SC(S(N)(=O)=O)=NN2C1c1ccc(Cl)cc1` (stereo not given), in data set [1], the mortality at 24 h, 100 ug/mL was found to be 66.6%. The mortality at 24 h, 1000 ug/mL in data set [2] stood at 96.6%. The LC50 at 24 h in data set [3] stood at 438 µg/mL (≈ 951 µM). The LC90 in the data set on Artemia salina stood at 788.78 µg/mL (≈ 1710 µM). In addition, the zone of inhibition at 5000 µg/mL in the data set on Bacillus cereus, in the data set with Escherichia coli, in the data set on Aspergillus fumigatus, in the data set with Staphylococcus aureus, with Aspergillus flavus and in the data set with Candida albicans was less than 2 mm throughout. Besides, the mortality at 24 h, 500 ug/mL in [4] was 80%. The “diameter of the inhibition zone (DIZ)” value in data set [5] is reported as less than 2 mm. For the same compound, the mortality at 24 h, 10 ug/mL in data set [6] stood at 50%.

As to `NS(=O)(=O)C1=NN2C(=O)c3ccccc3NC(c3ccsc3)/N=C\2S1` (stereo not given), in data set [1], the mortality at 24 h, 100 ug/mL was determined as 66.6%. Further, the mortality at 24 h, 1000 ug/mL in data set [2] was 86.6%. The median lethal concentration (LC50) at 24 h in [3] was found to be 477 µg/mL (≈ 1210 µM). The LC90 with Artemia salina amounted to 858.77 µg/mL (≈ 2180 µM). For the same compound, the zone of inhibition at 5000 µg/mL in the data set on Bacillus cereus, with Escherichia coli, in the data set on Aspergillus fumigatus, in the data set on Staphylococcus aureus, with Aspergillus flavus and in the data set on Candida albicans was less than 2 mm each time. In data set [4], the mortality at 24 h, 500 ug/mL came out at 76.6%. Besides, the “diameter of the inhibition zone (DIZ)” value in data set [5] is given as 6 mm. Further, the mortality at 24 h, 10 ug/mL in data set [6] came out at 46.6%.

On to `NS(=O)(=O)C1=NN2CCC(=O)N=C2S1`, for which the mortality at 24 h, 100 ug/mL in [1] came out at 90%. The mortality at 24 h, 1000 ug/mL in data set [2] worked out at 100%. In addition, in data set [3], the LC50 at 24 h amounted to 399 µg/mL (≈ 1700 µM). Moreover, the LC90 in the data set on Artemia salina amounted to 717.7 µg/mL (≈ 3060 µM). Also, the zone of inhibition at 5000 µg/mL in the data set with Bacillus cereus worked out at 4 mm; in the data set with Escherichia coli, 11 mm; with Aspergillus fumigatus, 8 mm; in the data set with Staphylococcus aureus it was 16 mm; in the data set on Aspergillus flavus it was 10 mm; in the data set with Candida albicans, 12 mm. For the same compound, in data set [4], the mortality at 24 h, 500 ug/mL is 96.6%. Also, in [5], the “diameter of the inhibition zone (DIZ)” value is less than 2 mm. The mortality at 24 h, 10 ug/mL in data set [6] is 70%.

Values taken from ChEMBL document CHEMBL2375302, “Synthesis, antimicrobial, antiquorum-sensing, antitumor and cytotoxic activities of new series of fused [1,3,4]thiadiazoles” (Eur J Med Chem, 2013).
